In patent US6503542B2, “Herbal compositions for treating immunological disorders” (GloboAsia, L.L.C., priority 2000, dated 2003):

How the values were obtained:
Assay type in all cases: in vivo, BALB/c mice
Settings in all cases: FIG. 10; comparison with conventional asthma drugs
IgE = test: ELISA determination of Der p 5-specific IgE in serum of Der p 5 sensitized mice
Text: (§1) The effects of the STA-36 and STA-4 herbal composition as well as individual herbs on suppression of allergen-induced immunoglobulin G (IgG), immunoglobulin E (IgE), interleukin-4 (IL-4), and interferon γ (IFN-γ) were investigated using BALB/c mice sensitized with D.P. (Dermatophagoides pteronyssimus) allergen “Der p 5”. Dermatophagoides pteronyssimus is the house dust mite which acts as an antigen and produces an allergic asthmatic reaction in atopic person.
(§2) Female BALB/c mice aged between 4 and 6 weeks and weighed about 20 g were obtained from the National Animal-breeding Center, Republic of China and used in the studies. Mice were age- and sex- matched for each experiment.
(§3) BALB/c mice were initially intraperitoneally sensitized with 10 μg of Dermatophagoides pteronyssimus group 5 (“Der p 5”) allergen and 4 mg of aluminium hydroxide (Wyeth Pharmaceuticals, Punchbowl, Australia). Seven (7) days after the first sensitization, mice, except the placebo control group, were fed with STA-36 and STA-4 herbal compositions until the end of the twenty-first day.
(§4) At the end of the twenty first day, the mice were given a second booster injection of Der p 5. Forty eight (48) hours after the second booster injection, mice were placed in a round plastic container where the mice were further challenged by 0.1% Der p 5 spray.
(§5) Several hours after the challenge, the mouse was anaesthetized using 100 mg/ml phenobarbital. […]
(§6) The amount of Der p 5-specific IgG and IgE were determined by Enzyme Linked Immunosorbent Assay (ELISA). […]
(§7) Avidin-alkaline phosphatase (1:1000) (Strptavidin-AP, PharMinge 13043E) was then added and incubated for 1 hour at 25° C., followed by six (6) washes. […] Plates were read in a microplate autoreader (ELISA reader, Dynex MRX) at 405 nm. Readings were referenced to commercial isotypes standards which were mouse anti-TNP mAb, IgG1 (107.3), IgG2a (G155-178), and IgE (IgE-3).
(§8) All of the data contained in the experiments were calculated as “mean±SEM.” Trachea resistance change induced by acetylcholine after converted to PC 100 was measured as μg/kg. […]

IL-4 = test: ELISA determination of IL-4 in fluid of pulmonary alveoli of Der p 5 sensitized mice
Text: as §1, §2, §3, §4
(§9) Several hours after the challenge, the mouse was anaesthetized using 100 mg/ml phenobarbital. Blood was collected from the tail vein or heart. […]
(§10) One hundred (100) μl of the supernatant from the fluid of pulmonary alveoli were then added to the microwells, together with cytokine standard solution, for overnight reaction at 4° C. […] Plates were read in a microplate autoreader (ELISA reader, Dynex MRX) at 405 nm.
as §8

IgG2a = test: ELISA determination of Der p 5-specific IgG (IgG2a) in serum of Der p 5 sensitized mice
Text: as §1, §2, §3, §4, §5, §6, §7, §8

IFN-γ = test: ELISA determination of IFN-γ in fluid of pulmonary alveoli of Der p 5 sensitized mice
Text: as §1, §2, §3, §4, §9, §10, §8

SMILES	effect on IgE vs control (IgE)	effect on IL-4 vs control (IL-4)	effect on IgG (IgG2a) vs control (IgG2a)	effect on IFN-γ vs control (IFN-γ)
C[C@]12C=CC(=O)C=C1CC[C@@H]1[C@@H]2[C@@H](O)C[C@@]2(C)[C@H]1CC[C@]2(O)C(=O)CO [prednisolone]	only STA-4 demonstrated significant decreased in IgE	only STA-4 demonstrated significant decreased in IgE and significant increase in IgG, IL-4	only STA-4 demonstrated significant decreased in IgE and significant increase in IgG	only STA-4 demonstrated significant decreased in IgE and significant increase in IgG, IL-4, and IFN-γ
CN1CCC(=C2c3ccccc3CC(=O)c3sccc32)CC1 [ketotifen]	only STA-4 demonstrated significant decreased in IgE	only STA-4 demonstrated significant decreased in IgE and significant increase in IgG, IL-4	only STA-4 demonstrated significant decreased in IgE and significant increase in IgG	only STA-4 demonstrated significant decreased in IgE and significant increase in IgG, IL-4, and IFN-γ
Cn1c(=O)c2[nH]cnc2n(C)c1=O.Cn1c(=O)c2[nH]cnc2n(C)c1=O.NCCN [aminophline]	only STA-4 demonstrated significant decreased in IgE	only STA-4 demonstrated significant decreased in IgE and significant increase in IgG, IL-4	only STA-4 demonstrated significant decreased in IgE and significant increase in IgG	only STA-4 demonstrated significant decreased in IgE and significant increase in IgG, IL-4, and IFN-γ
